Entries after “also recorded” stand apart in the source; their conditions may differ.
Columns and labels:
HepG2 cells = assay: alkaline Comet assay, DNA strand breaks; assay type: cell-based; conditions: human HepG2 cells, exposure 24 h, 37° C.
From the text: (§1) We recently examined the genotoxicity of NNA in human HepG2 cells as well as its ability to modify both 2-deoxyguanosine (dGuo) and 2-deoxycytodine (dCyt) in vitro. […] In the reaction of NNA with dGuo, several adducts were identified with HPLC-UV spectrum, ESI-MS/MS and NMR. These include 8-oxo-2′-deoxyguanosine (8-oxo-dG), 0^6-methyl-dG, and N^2-methyl-dG. NNA also forms a bulky dG adduct with m/z 455.17 for (M+H)^+ in mass spectrum, which is due to the condensation of NNA and dG with the elimination of H2O and two hydrogen molecules. In addition, NNA causes novel DNA sugar damage, forming […]. […] In addition, the NNA-specific DNA adducts identified can be used as specific biomarkers of THS exposure.
FIGS. 3A and 3B: Genotoxic effect of NNA in human HepG2 cells as measured by the Comet assay. HepG2 cells were exposed to varying doses of NNA dissolved in DMEM medium with/without 10% FBS for 24 h. […] (A) Effect of acute THS and THS+HONO. HepG2 cells were exposed to samples at 37° C. for 24 h. The extent of DNA damage was analyzed by % DNA in tail to total DNA from 90 cells. (B) HepG2 cells were exposed to chronic THS at varying dilutions under identical conditions as above.
(§2) Using the alkaline Comet assay, we examined the potential of NNA to cause DNA strand breaks in cultured human hepatocellular carcinoma (HepG2) cells. […]

2-deoxycytidine (dCyt) = assay: reaction of NNA with dCyt in vitro, adduct formation
From the text: NNA (1-(N-methyl-N-nitrosamino)-1-(3-pyridinyl)-4-butanal) is an important member of the carcinogenic/mutagenic tobacco-specific nitrosamines (TSNAs) and an unique constituent found in the most recently identified health risk called thirdhand smoke (THS). We studied the reactions of NNA with 2-deoxyguanosine (dGuo) and 2-deoxycytidine (dCyt) in vitro with regard to its ability to form stable base adducts, which have not been reported in literature at all. Herein we have identified and characterize potential specific THS biomarkers. We also describe experimental evidence for detrimental effects from exposure to THS, which could be useful for framing and enforcing new policies against indoor smoking.
Herein we describe the first evidence that reaction of NNA with dCyt in vitro results in formation of stable base adducts too, which have not been hereto for been reported in literature.
Using the alkaline Comet assay, we examined the potential of NNA to cause DNA strand breaks in cultured human hepatocellular carcinoma (HepG2) cells. Moreover, the ability of NNA to form DNA adducts with dGuo and dCyt in vitro was investigated and characterized using HPLC-UV, electrospray ionization mass spectrometry (ESI-MS/MS) and NMR. […]

2-deoxyguanosine (dGuo) = assay: reaction of NNA with dGuo in vitro, DNA adduct formation; conditions: HPLC-UV, ESI-MS/MS, NMR
From the text: as §1
We discovered that NNA reacts with dGuo (“dG”) and dCyt (“dC”) to form various DNA adducts. […] The chemical structure of this adduct has been proposed and validated using various NMR experiments. Because of its specific structural characteristic, this adduct can serve as a DNA damage “signature” by NNA, thus a potential biomarker for monitoring exposure to thirdhand smoke.
as §2

CN(CCCC(=O)c1cccnc1)N=O [NNK, 4-(methylnitrosamino)-1-(3-pyridyl)-1-butanone, reference compound]
DNA damage / DNA strand breaks (Comet assay) (HepG2 cells): induces DNA damage at low nanomolar concentrations; also recorded: causes significant DNA damage at nM concentrations

CN(N=O)C(CCC=O)c1cccnc1 (stereo not shown) [NNA, 1-(N-methyl-N-nitrosamino)-1-(3-pyridinyl)-4-butanal]
formation of adducts with dC (2-deoxycytidine (dCyt)): reacts with dC to form multiple adducts | DNA damage / DNA strand breaks (Comet assay) (HepG2 cells): concentration-dependent DNA strand breaks; also recorded: induces DNA damage at low nanomolar concentrations; also recorded: results in DNA strand breaks in exposed cells; also recorded: causes significant DNA damage at nM concentrations | formation of DNA adducts with dGuo (2-deoxyguanosine (dGuo)): forms multiple DNA adducts in vitro
